Several values for one entry are separate records, joined by “and”; a condition that tells them apart may be missing. Equal values may be shown once. Read-outs that look alike come from different tables or passages of the source.
Assays:
Assay in all cases: Chemosensitivity, 96 h continuous exposure, MTT assay
Type in all cases: cell-based, human
[1] = tested on: H460; conditions: for IC50 / Selectivity indices relative to ARPE-19, Ratio + anion:no anion / Selectivity indices relative to MCF10A, Ratio + anion:no anion: H460; for Selectivity index (ARPE19): IC50 ARPE-19 / IC50 H460; for Selectivity index (MCF10A): IC50 MCF10A / IC50 H460; for Relative potency (+ anion to no anion), Ratio + anion:no anion: ratio of IC50, H460; for Selectivity indices relative to ARPE-19, Ratio + anion:no anion: ratio of SI (ARPE-19); for Selectivity indices relative to MCF10A, Ratio + anion:no anion: ratio of SI (MCF 10A)
Summary of the method: (§1)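 Cells seeded at 2 × 10^3/well (GBM1 3 × 10^3/well) and left overnight at 37 °C, then exposed continuously for 96 h to a range of compound concentrations (final DMSO 0.2%). Viability read by MTT, absorbance at 540 nm; IC50 taken from dose-response curves as concentration reducing cell growth by 50%.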

[2] = tested on: HCT116 p53+/+; conditions: for IC50 / Selectivity indices relative to ARPE-19, Ratio + anion:no anion / Selectivity indices relative to MCF10A, Ratio + anion:no anion: HCT116 p53+/+; for Selectivity index (ARPE19): IC50 ARPE-19 / IC50 HCT116 p53+/+; for Selectivity index (MCF10A): IC50 MCF10A / IC50 HCT116 p53+/+; for Relative potency (+ anion to no anion), Ratio + anion:no anion: ratio of IC50, HCT116 p53+/+; for Selectivity indices relative to ARPE-19, Ratio + anion:no anion: ratio of SI (ARPE-19); for Selectivity indices relative to MCF10A, Ratio + anion:no anion: ratio of SI (MCF 10A)
Summary of the method: as §1

[3] = tested on: HCT116 p53-/-; conditions: for IC50 / Selectivity indices relative to ARPE-19, Ratio + anion:no anion / Selectivity indices relative to MCF10A, Ratio + anion:no anion: HCT116 p53-/-; for Selectivity index (ARPE19): IC50 ARPE-19 / IC50 HCT116 p53-/-; for Selectivity index (MCF10A): IC50 MCF10A / IC50 HCT116 p53-/-; for Relative potency (+ anion to no anion), Ratio + anion:no anion: ratio of IC50, HCT116 p53-/-; for Selectivity indices relative to ARPE-19, Ratio + anion:no anion: ratio of SI (ARPE-19); for Selectivity indices relative to MCF10A, Ratio + anion:no anion: ratio of SI (MCF 10A)
Summary of the method: as §1

[4] = tested on: MiaPaCa2; conditions: for Selectivity index (ARPE19): IC50 ARPE-19 / IC50 MiaPaCa2; for Selectivity index (MCF10A): IC50 MCF10A / IC50 MiaPaCa2; for IC50 / Selectivity indices relative to ARPE-19, Ratio + anion:no anion / Selectivity indices relative to MCF10A, Ratio + anion:no anion: MiaPaCa2; for Relative potency (+ anion to no anion), Ratio + anion:no anion: ratio of IC50, MiaPaCa2; for Selectivity indices relative to ARPE-19, Ratio + anion:no anion: ratio of SI (ARPE-19); for Selectivity indices relative to MCF10A, Ratio + anion:no anion: ratio of SI (MCF 10A)
Summary of the method: as §1

[5] = mean of replicates, read-out: Mean IC50
[6] = single replicate, read-out: IC50 values for each replicate
[7] = 96 h, MTT, individual run, read-out: IC50 values for each replicate
[8] = 96 h, MTT, mean of at least 3 independent experiments, read-out: Mean IC50

O=P([O-])([O-])Oc1ccccc1.[Cu+2].[Cu+2].[Cu+2].c1ccc(-c2csc(NCCN(CCNc3nc(-c4ccccn4)cs3)CCNc3nc(-c4ccccn4)cs3)n2)nc1.c1ccc(-c2csc(NCCN(CCNc3nc(-c4ccccn4)cs3)CCNc3nc(-c4ccccn4)cs3)n2)nc1 [[L2Cu3(O3POPh)]4+]
IC50 [1, 5]: 198 nM
IC50 ([1]; read-out: Mean IC50 values): 198 nM
IC50 [1, 6]: 122 nM and 234 nM and 163 nM and 228 nM and 245 nM
Selectivity index (ARPE19) [1]: 582.02
Selectivity index (MCF10A) [1]: 259.98
Relative potency (+ anion to no anion), Ratio + anion:no anion [1]: 0.72
Selectivity indices relative to ARPE-19, Ratio + anion:no anion [1]: 3.052
Selectivity indices relative to MCF10A, Ratio + anion:no anion [1]: 1.487
IC50 [2, 5]: 167 nM
IC50 ([2]; read-out: Mean IC50 values): 167 nM
IC50 [2, 6]: 170 nM and 167 nM and 189 nM and 142 nM
Selectivity index (ARPE19) [2]: 690.06
Selectivity index (MCF10A) [2]: 308.25
Relative potency (+ anion to no anion), Ratio + anion:no anion [2]: 0.34
Selectivity indices relative to ARPE-19, Ratio + anion:no anion [2]: 6.503
Selectivity indices relative to MCF10A, Ratio + anion:no anion [2]: 3.168
IC50 [3, 5]: 82 nM
IC50 ([3]; read-out: Mean IC50 values): 82 nM
IC50 [3, 6]: 80 nM and 86 nM
Selectivity index (ARPE19) [3]: 1405.37
Selectivity index (MCF10A) [3]: 627.77
Relative potency (+ anion to no anion), Ratio + anion:no anion [3]: 0.60
Selectivity indices relative to ARPE-19, Ratio + anion:no anion [3]: 3.658
Selectivity indices relative to MCF10A, Ratio + anion:no anion [3]: 1.782
Selectivity index (ARPE19) [4]: 2.44
Selectivity index (MCF10A) [4]: 1.09
IC50 [4, 5]: 47200 nM
IC50 ([4]; read-out: Mean IC50 values): 47200 nM
IC50 [4, 6]: 50100 nM and 44300 nM and 47100 nM
Relative potency (+ anion to no anion), Ratio + anion:no anion [4]: 4.00
Selectivity indices relative to ARPE-19, Ratio + anion:no anion [4]: 0.548
Selectivity indices relative to MCF10A, Ratio + anion:no anion [4]: 0.267

O=P([O-])([O-])[O-].[Cu+2].[Cu+2].[Cu+2].c1ccc(-c2csc(NCCN(CCNc3nc(-c4ccccn4)cs3)CCNc3nc(-c4ccccn4)cs3)n2)nc1.c1ccc(-c2csc(NCCN(CCNc3nc(-c4ccccn4)cs3)CCNc3nc(-c4ccccn4)cs3)n2)nc1 [[L2Cu3(PO4)]3+]
IC50 [1, 5]: 1410 nM
IC50 ([1]; read-out: Mean IC50 values): 1410 nM
IC50 [1, 6]: 592 nM and 533 nM and 1.4 µM and 2.22 µM and 504 nM and 1.98 µM (2×) and 2.1 µM
Selectivity index (ARPE19) [1]: 115.82
Selectivity index (MCF10A) [1]: 34.92
Relative potency (+ anion to no anion), Ratio + anion:no anion [1]: 5.12
Selectivity indices relative to ARPE-19, Ratio + anion:no anion [1]: 0.607
Selectivity indices relative to MCF10A, Ratio + anion:no anion [1]: 0.200
IC50 [2, 5]: 3390 nM
IC50 ([2]; read-out: Mean IC50 values): 3390 nM
IC50 [2, 6]: 5270 nM and 3750 nM and 2150 nM and 2080 nM and 1850 nM
Selectivity index (ARPE19) [2]: 48.25
Selectivity index (MCF10A) [2]: 14.55
Relative potency (+ anion to no anion), Ratio + anion:no anion [2]: 6.84
Selectivity indices relative to ARPE-19, Ratio + anion:no anion [2]: 0.455
Selectivity indices relative to MCF10A, Ratio + anion:no anion [2]: 0.150
IC50 [3, 5]: 388 nM
IC50 ([3]; read-out: Mean IC50 values): 388 nM
IC50 [3, 6]: 686 nM and 542 nM and 264 nM and 205 nM and 242 nM
Selectivity index (ARPE19) [3]: 422.09
Selectivity index (MCF10A) [3]: 127.27
Relative potency (+ anion to no anion), Ratio + anion:no anion [3]: 2.83
Selectivity indices relative to ARPE-19, Ratio + anion:no anion [3]: 1.099
Selectivity indices relative to MCF10A, Ratio + anion:no anion [3]: 0.361
Selectivity index (ARPE19) [4]: 1.36
Selectivity index (MCF10A) [4]: 0.41
IC50 [4, 5]: 121000 nM
IC50 ([4]; read-out: Mean IC50 values): 121000 nM
IC50 [4, 6]: 108000 nM and 145000 nM and 109000 nM
Relative potency (+ anion to no anion), Ratio + anion:no anion [4]: 10.22
Selectivity indices relative to ARPE-19, Ratio + anion:no anion [4]: 0.305
Selectivity indices relative to MCF10A, Ratio + anion:no anion [4]: 0.100

O=S(=O)([O-])[O-].[Cu+2].[Cu+2].[Cu+2].c1ccc(-c2csc(NCCN(CCNc3nc(-c4ccccn4)cs3)CCNc3nc(-c4ccccn4)cs3)n2)nc1.c1ccc(-c2csc(NCCN(CCNc3nc(-c4ccccn4)cs3)CCNc3nc(-c4ccccn4)cs3)n2)nc1 [[L2Cu3(SO4)]4+]
IC50 [1, 5]: 252 nM
IC50 ([1]; read-out: Mean IC50 values): 252 nM
IC50 [1, 6]: 438 nM and 207 nM and 188 nM and 219 nM and 227 nM and 234 nM
Selectivity index (ARPE19) [1]: 477.42
Selectivity index (MCF10A) [1]: 197.35
Relative potency (+ anion to no anion), Ratio + anion:no anion [1]: 0.91
Selectivity indices relative to ARPE-19, Ratio + anion:no anion [1]: 2.504
Selectivity indices relative to MCF10A, Ratio + anion:no anion [1]: 1.129
IC50 [2, 5]: 668 nM
IC50 ([2]; read-out: Mean IC50 values): 668 nM
IC50 [2, 6]: 643 nM and 713 nM and 647 nM
Selectivity index (ARPE19) [2]: 180.10
Selectivity index (MCF10A) [2]: 74.45
Relative potency (+ anion to no anion), Ratio + anion:no anion [2]: 1.35
Selectivity indices relative to ARPE-19, Ratio + anion:no anion [2]: 1.697
Selectivity indices relative to MCF10A, Ratio + anion:no anion [2]: 0.765
IC50 ([3]; read-out: Mean IC50 values): 78 nM
IC50 [3, 6]: 78 nM and 77 nM and 79 nM
Selectivity index (ARPE19) [3]: 1542.44
Selectivity index (MCF10A) [3]: 637.59
Relative potency (+ anion to no anion), Ratio + anion:no anion [3]: 0.57
Selectivity indices relative to ARPE-19, Ratio + anion:no anion [3]: 4.015
Selectivity indices relative to MCF10A, Ratio + anion:no anion [3]: 1.810
Selectivity index (ARPE19) [4]: 2.28
Selectivity index (MCF10A) [4]: 0.94
IC50 [4, 5]: 52700 nM
IC50 ([4]; read-out: Mean IC50 values): 52700 nM
IC50 [4, 6]: 63700 nM and 63600 nM and 47200 nM and 43500 nM and 49700 nM and 48300 nM
Relative potency (+ anion to no anion), Ratio + anion:no anion [4]: 4.46
Selectivity indices relative to ARPE-19, Ratio + anion:no anion [4]: 0.512
Selectivity indices relative to MCF10A, Ratio + anion:no anion [4]: 0.231

[Mn+2].[Mn+2].[Mn+2].c1ccc(-c2csc(NCCN(CCNc3nc(-c4ccccn4)cs3)CCNc3nc(-c4ccccn4)cs3)n2)nc1.c1ccc(-c2csc(NCCN(CCNc3nc(-c4ccccn4)cs3)CCNc3nc(-c4ccccn4)cs3)n2)nc1 [[L2Mn3]6+]
IC50 [2, 7]: 1780 nM and 529 nM and 1400 nM and 1450 nM and 1410 nM
IC50 [2, 8]: 1320 nM
IC50 ([2]; read-out: Mean IC50 values): 1320 nM
Selectivity index (ARPE19) [2]: 2.17
preferential selectivity towards cancer cells ([2]; cancer cells vs non-cancer cells (Fig. 5f)): ~ 2 fold
SI (ARPE19) ([2]; mean IC50 ARPE-19 / mean IC50 HCT116 p53+/+): 2.173
IC50 [3, 7]: 1560 nM and 785 nM and 1350 nM and 1280 nM
IC50 [3, 8]: 1250 nM
IC50 ([3]; read-out: Mean IC50 values): 1250 nM
Selectivity index (ARPE19) [3]: 2.30
SI (ARPE19) ([3]; mean IC50 ARPE-19 / mean IC50 HCT116 p53-/-): 2.295
